The text below walks through data of publication PMC10962836, “Cis-regulatory polymorphism at fiz ecdysone oxidase contributes to polygenic evolutionary response to malnutrition in Drosophila” (PLOS Genetics, 2024).

The target of this experiment is T1, Fiz (Drosophila melanogaster, UniProt Q9VY04).
T1 construct: N-terminal RGS-6xHis tag kept; E. coli Rosetta Gami DE3, Ni-NTA; contains FAD
T1 sequence (Q9VY04 2-646): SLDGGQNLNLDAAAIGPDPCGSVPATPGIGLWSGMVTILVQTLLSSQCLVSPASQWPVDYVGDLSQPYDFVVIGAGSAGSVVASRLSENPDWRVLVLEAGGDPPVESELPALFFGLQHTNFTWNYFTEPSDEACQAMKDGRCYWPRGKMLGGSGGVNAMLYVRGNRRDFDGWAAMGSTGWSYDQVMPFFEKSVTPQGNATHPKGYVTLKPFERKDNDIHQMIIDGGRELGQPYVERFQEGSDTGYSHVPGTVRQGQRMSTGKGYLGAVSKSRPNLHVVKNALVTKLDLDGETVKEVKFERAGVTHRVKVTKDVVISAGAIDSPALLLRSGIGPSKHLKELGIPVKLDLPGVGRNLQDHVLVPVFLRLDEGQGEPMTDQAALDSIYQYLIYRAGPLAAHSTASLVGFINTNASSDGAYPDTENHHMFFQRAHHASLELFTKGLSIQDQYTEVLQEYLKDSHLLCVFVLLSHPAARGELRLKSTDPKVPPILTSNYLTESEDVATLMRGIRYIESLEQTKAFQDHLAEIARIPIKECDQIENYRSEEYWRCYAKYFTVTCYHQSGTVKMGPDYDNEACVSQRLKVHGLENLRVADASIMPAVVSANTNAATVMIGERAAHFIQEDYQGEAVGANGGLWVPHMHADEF
Put plainly: FAD content of purified protein (method in supplement). Format: binding. The settings on record: co-purified from E. coli, no FAD addition told.

The structures appear in SMILES notation.

`Cc1cc2nc3c(=O)[nH]c(=O)nc-3n(C[C@H](O)[C@H](O)[C@H](O)COP(=O)(O)OP(=O)(O)OC[C@H]3O[C@@H](n4cnc5c(N)ncnc54)[C@H](O)[C@@H]3O)c2cc1C` [FAD]: the “FAD content of purified protein (method in supplement)” value is on record as “we confirmed that our purified Fiz contained FAD”.
